In patent EP4714449A1, “USE OF HETEROCYCLIC COMPOUND FOR TREATING DISEASES RELATED TO RET GENETIC CHANGE AND METHOD THEREFOR” (Sichuan Kelun-Biotech Biopharmaceutical Co., Ltd., priority 2023, dated 2024):
Several values for one entry are separate records, joined by “and”; a condition that tells them apart may be missing. Equal entries are not always repeated. Structures can show the parent of a compound that is named as a salt.

Columns and labels:
[1] = tested on: Ba/F3 KIF5B-RET^V804M; experiment: Proliferation of RET mutant cells (Cell Titer Glo); assay type: cell-based; settings: for IC50: Mus musculus, BaF3, 72 h, 3 days, read-out: Inhibition IC50 (nM) of the compounds on the proliferation of the cell
Protocol: (§1) Ba/F3 cells (Ba/F3 KIF5B-RET^V804E, Ba/F3 KIF5B-RET^V804L, Ba/F3 KIF5B-RET^V804M) in logarithmic phase were respectively collected and inoculated into 96-well plates, with 1000 cells/95 µl/well. […] In addition, negative control wells (without the test compound) and blank control wells (without cells) were set.
(§2) Inhibition rate % = [1 - (average signal value of compound group - average signal value of blank control) / (average signal value of negative control - average signal value of blank control)] * 100%; the inhibition rate % was fitted using the four-parameter equation "log(agonist) vs response-variable slope (four parameters)" in GraphPad Prism 6.0, and the IC50 was obtained by calculation.

[2] = tested on: Ba/F3 KIF5B-RET^V804E; experiment: Proliferation of RET mutant cells (Cell Titer Glo); assay type: cell-based; settings: for IC50: Mus musculus, BaF3, 72 h, 3 days, read-out: Inhibition IC50 (nM) of the compounds on the proliferation of the cell
Protocol: as §1, §2

[3] = tested on: Ba/F3 KIF5B-RET^V804L; experiment: Proliferation of RET mutant cells (Cell Titer Glo); assay type: cell-based; settings: for IC50: Mus musculus, BaF3, 72 h, Ba/F3 KIFSB-RET^V804L, 3 days, read-out: Inhibition IC50 (nM) of the compounds on the proliferation of the cell
Protocol: as §1, §2

[4] = tested on: Ba/F3 KIF5B-RET^G810R; experiment: Proliferation of RET mutant cells (Cell Titer Glo); assay type: cell-based; settings: for IC50: Mus musculus, BaF3, 72 h, 3 days, read-out: Inhibition IC50 (nM) of the compounds on the proliferation of the cell
Protocol: (§3) Experimental method: Ba/F3 cells (Ba/F3 KIF5B-RET^G810R, Ba/F3 KIF5B-RET^G810S, Ba/F3 KIFSB-RET^G810C) in logarithmic phase were respectively collected and inoculated into 96-well plates, with 2000 cells/95 µl/well. […] In addition, negative control wells (without the test compound) and blank control wells (without cells) were set.
as §2

[5] = tested on: Ba/F3 KIF5B-RET^G810C; experiment: Proliferation of RET mutant cells (Cell Titer Glo); assay type: cell-based; settings: for IC50: Mus musculus, BaF3, 72 h, 3 days, read-out: Inhibition IC50 (nM) of the compounds on the proliferation of the cell
Protocol: as §3, §2

[6] = tested on: Ba/F3 KIF5B-RET^G810S; experiment: Proliferation of RET mutant cells (Cell Titer Glo); assay type: cell-based; settings: for IC50: Mus musculus, BaF3, 72 h, 3 days, read-out: Inhibition IC50 (nM) of the compounds on the proliferation of the cell
Protocol: as §3, §2

[7] = Safety evaluation in patients with RET-altered tumors; assay type: in vivo, human; settings: 109 patients with RET-altered tumors, once daily, 10-120 mg
Protocol: A total of 109 patients with RET-altered tumors were recruited, and compound 1-A of the present disclosure was administered once daily at six dosage levels of 10 mg, 20 mg, 40 mg, 60 mg, 90 mg, and 120 mg.

[8] = tested on: NSCLC, MTC, Pancreatic Cancer, and Ovarian Cancer; experiment: Treatment of patients with NSCLC, MTC, pancreatic cancer and ovarian cancer; assay type: in vivo, human; settings: 90 patients (70 NSCLC, 18 MTC, 1 pancreatic cancer, 1 ovarian cancer), once daily 40-120 mg
Protocol: (§4) A total of 90 patients were recruited, including 70 patients with non-small cell lung cancer (NSCLC), 18 patients with medullary thyroid carcinoma (MTC), 1 patient with pancreatic cancer, and 1 patient with ovarian cancer. Compound 1-A of the present disclosure was administered once daily at dosage levels of 40-120 mg (40 mg, 60 mg, 90 mg, and 120 mg), resulting in an objective response rate (ORR) of 60% and a disease control rate (DCR) of 94% for the 90 patients.

[9] = tested on: non-small cell lung cancer (NSCLC); experiment: Treatment of NSCLC patients (subgroups of the clinical study); assay type: in vivo, human; design: disease control rate (DCR) / overall central nervous system disease control rate (CNS DCR): concentration or dose not given beside the values
Protocol: as §4
Among the 70 NSCLC patients, there were 26 who had not been systemically pretreated, 33 who had previously been systemically pretreated (excluding first-generation selective RET inhibitors), and 11 who had been previously treated with at least first-generation selective RET inhibitor therapy.

[10] = molecular target: RET-G810S (Homo sapiens, UniProt P07949, G810S); experiment: RET inhibition experiment, HTRF KinEASE-TK kit, mutant RET-G810S enzyme; assay type: biochemical
[11] = molecular target: RET-G810C (Homo sapiens, UniProt P07949, G810C); experiment: RET inhibition experiment, HTRF KinEASE-TK kit, mutant RET-G810C enzyme; assay type: biochemical
[12] = molecular target: RET-G810R (Homo sapiens, UniProt P07949, G810R); experiment: RET inhibition experiment, HTRF KinEASE-TK kit, mutant RET-G810R enzyme; assay type: biochemical
[13] = 8 NSCLC patients pretreated with first-generation selective RET inhibitors, dosed at 90 mg or 120 mg
[14] = 26 NSCLC patients not systemically pretreated
[15] = 33 NSCLC patients systemically pretreated (excluding first-generation selective RET inhibitors)
[16] = Table 7, comparison with BLU-667 and LOXO-292

Sequence of RET-G810C (P07949 29-1114 G810C): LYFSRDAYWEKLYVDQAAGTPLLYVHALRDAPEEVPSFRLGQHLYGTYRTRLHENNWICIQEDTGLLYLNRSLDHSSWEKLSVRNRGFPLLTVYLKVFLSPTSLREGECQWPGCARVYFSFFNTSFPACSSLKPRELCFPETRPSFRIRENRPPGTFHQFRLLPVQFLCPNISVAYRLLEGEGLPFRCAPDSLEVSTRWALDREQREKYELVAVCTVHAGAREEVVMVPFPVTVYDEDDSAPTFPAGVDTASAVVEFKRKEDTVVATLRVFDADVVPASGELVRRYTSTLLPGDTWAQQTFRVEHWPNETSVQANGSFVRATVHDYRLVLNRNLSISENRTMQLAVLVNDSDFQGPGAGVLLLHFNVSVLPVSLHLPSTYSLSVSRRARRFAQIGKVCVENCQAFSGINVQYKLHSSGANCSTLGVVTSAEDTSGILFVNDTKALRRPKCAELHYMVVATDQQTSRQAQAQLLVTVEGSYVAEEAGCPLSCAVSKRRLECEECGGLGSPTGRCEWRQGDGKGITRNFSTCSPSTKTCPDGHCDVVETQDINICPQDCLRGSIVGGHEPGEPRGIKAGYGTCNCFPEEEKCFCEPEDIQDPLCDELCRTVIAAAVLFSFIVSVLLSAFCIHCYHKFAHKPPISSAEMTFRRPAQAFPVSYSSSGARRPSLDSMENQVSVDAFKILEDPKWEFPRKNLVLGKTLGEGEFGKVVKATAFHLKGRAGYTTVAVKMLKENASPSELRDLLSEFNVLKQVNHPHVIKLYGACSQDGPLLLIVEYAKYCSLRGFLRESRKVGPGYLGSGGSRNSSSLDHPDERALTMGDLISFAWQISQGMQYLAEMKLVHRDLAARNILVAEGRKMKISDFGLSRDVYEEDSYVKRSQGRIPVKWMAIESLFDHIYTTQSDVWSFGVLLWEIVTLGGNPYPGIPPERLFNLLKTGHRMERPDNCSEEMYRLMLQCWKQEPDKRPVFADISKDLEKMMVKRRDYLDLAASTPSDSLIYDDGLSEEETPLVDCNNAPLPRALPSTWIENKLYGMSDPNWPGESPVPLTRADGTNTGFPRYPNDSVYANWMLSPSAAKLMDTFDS
Sequence of RET-G810S (P07949 29-1114 G810S): as the sequence (P07949 29-1114 G810C) above, with C782S counted along it
Sequence of RET-G810R (P07949 29-1114 G810R): as the sequence (P07949 29-1114 G810C) above, with C782R counted along it

Compound `CO[C@]1(C(=O)N[C@@H](C)c2ccc(-n3cc(F)cn3)nc2)CC[C@H](c2nc(C)cc(Nc3cc(C)[nH]n3)n2)CC1` [BLU-667, reference compound] has an IC50 [1] of 39.5 ± 16.7 nM, an IC50 [2] of 76.2 ± 9.74 nM and an IC50 [3] of 87.1 ± 11.3 nM. The IC50 [4] was 182 ± 80 nM, the IC50 [5] was 146 ± 3.4 nM and the IC50 [6] was 29 ± 4.47 nM.

For `Cc1cc(Nc2cc(C)[nH]n2)nc(-c2ccc(N3CC4CC(C3)N4Cc3ccc(-n4cc(F)cn4)nc3)nc2)n1` [Compound 1-A, Fumarate of 2-(6-(6-((6-(4-fluoro-1H-pyrazol-1-yl)pyridin-3-yl)methyl)-3,6-diazabicyclo[3.1.1]heptan-3-yl)pyridin-3-yl)-6-methyl-N-(5-methyl-1H-pyrazol-3-yl)pyrimidin-4-amine], the “dose-limiting toxicities (DLT)” value [7] was “No dose-limiting toxicities (DLT) were observed”, the “maximum tolerated dose (MTD)” value [7] was “nor was the maximum tolerated dose (MTD) reached” and the “treatment-related adverse events (TRAE) of grade 1-2 and reversible” value [7] was 76.1%. The “disease control rate (DCR)” value [8] was 94%, the “objective response rate (ORR)” value [8] was 60% and the “inhibiting the proliferation, comparison in words” value (“inhibiting the proliferation” below) [1] was “superior to BLU-667 and Loxo-292”. For the same compound, the IC50 [1] was 25.5 ± 1.91 nM, the “inhibiting the proliferation” value [2] was “superior to BLU-667 and Loxo-292” and the IC50 [2] was 59.8 ± 8.33 nM. For the same compound, the “inhibiting the proliferation” value ([3]; Ba/F3 KIF5B-RET^V804L) was “superior to BLU-667 and Loxo-292”, the IC50 [3] was 66.6 ± 20.7 nM and the “inhibiting the proliferation” value [4] was “superior to BLU-667 and Loxo-292”. The IC50 [4] was 26.3 ± 5.76 nM, the “inhibiting the proliferation” value [5] was “superior to BLU-667 and Loxo-292” and the IC50 [5] was 65.3 ± 1 nM. The “inhibiting the proliferation” value [6] was “superior to BLU-667 and Loxo-292”, the IC50 [6] was 20.2 ± 0.35 nM and the “partial response (PR), number of patients” value [9, 13] was 3 patients. The “stable disease (SD), number of patients” value [9, 13] was 4 patients, the “tumor shrinkage observed, share of patients” value ([9]; 8 NSCLC patients pretreated with first-generation selective RET inhibitors, dosed at 90 mg or 120 mg, 7 patients) was 88% and the “complete response (CR), number of patients” value [9, 14] was 1. The “disease control rate (DCR)” value [9, 14] was 96%, the “partial responses (PR), number of patients” value [9, 14] was 20 and the “objective response rate (ORR)” value ([9]; 26 NSCLC patients not systemically pretreated (21/26)) was 81%. The “ERC1-RET fusion-positive patient achieving complete response (CR), number of patients” value [9, 15] was 1, the “disease control rate (DCR)” value [9, 15] was 97% and the “objective response rate (ORR)” value ([9]; 33 NSCLC patients systemically pretreated (excluding first-generation selective RET inhibitors) (23/33)) was 70%. For the same compound, the “response of the NCOA4-RET fusion-positive and RELCH-RET fusion-positive patients” value ([9]; NSCLC patients not systemically pretreated, 1 patient each) was “partial responses (PR)”, the “overall central nervous system disease control rate (CNS DCR)” value ([9]; NSCLC patients with brain metastasis) was 100% and the “reductions of measurable brain lesions after treatment” value ([9]; six NSCLC patients with brain metastasis and measurable brain lesions, one value per patient) was 100% (3×) and 69% and 47% and 17%. The IC50 [10, 16] was 2.69 ± 0.56 nM, the “inhibition on RET-G810S enzyme (in words)” value ([10]; summary of Tables 3, 4, 7) was “remarkably inhibited” and the IC50 [11, 16] was 53.2 ± 10.7 nM. For the same compound, the “inhibition on RET-G810C enzyme (in words)” value ([11]; summary of Tables 5, 6, 7) was “remarkably inhibited”, the IC50 [12, 16] was 19.6 ± 0.67 nM and the “inhibition on RET-G810R enzyme (in words)” value ([12]; summary of Tables 1, 2, 7) was “remarkably inhibited”.

In the case of `COc1ccc(CN2C3CC2CN(c2ccc(-c4cc(OCC(C)(C)O)cn5ncc(C#N)c45)cn2)C3)cn1` [LOXO-292, reference compound], the IC50 [1] is reported as 503 ± 190 nM, the IC50 [2] is reported as 460 ± 32.9 nM and the IC50 [3] is reported as 1330 ± 666 nM. It also gave an IC50 [4] of 116.3 ± 1.15 nM, an IC50 [5] of 477 ± 4.4 nM and an IC50 [6] of 87.83 ± 0.75 nM.
